From patent US6855730B2, “3-methylidenyl-2-indolinone modulators of protein kinase” (Sugen, Inc., priority 1998, dated 2005)

biological target: T1, PDGFR-β (Homo sapiens, UniProt P09619); assay: Biochemical PDGFR assay (ELISA, PDGFR-β expressing NIH 3T3 cell lysate); conditions: read-out: bio PDGF IC50
T1 construct: host or cells: NIH 3T3
Outline: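 Phosphorylation was read by ELISA (anti-phosphotyrosine serum, peroxidase secondary, ABTS at 410 nm) after a 30 min room-temperature reaction with 20 μM ATP, EDTA-stopped. Kinase was lysate-derived PDGFR-β (NIH 3T3) immobilised via 28D4C10 antibody, compound added 30 min before ATP.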

T1 sequence (P09619 33-1106): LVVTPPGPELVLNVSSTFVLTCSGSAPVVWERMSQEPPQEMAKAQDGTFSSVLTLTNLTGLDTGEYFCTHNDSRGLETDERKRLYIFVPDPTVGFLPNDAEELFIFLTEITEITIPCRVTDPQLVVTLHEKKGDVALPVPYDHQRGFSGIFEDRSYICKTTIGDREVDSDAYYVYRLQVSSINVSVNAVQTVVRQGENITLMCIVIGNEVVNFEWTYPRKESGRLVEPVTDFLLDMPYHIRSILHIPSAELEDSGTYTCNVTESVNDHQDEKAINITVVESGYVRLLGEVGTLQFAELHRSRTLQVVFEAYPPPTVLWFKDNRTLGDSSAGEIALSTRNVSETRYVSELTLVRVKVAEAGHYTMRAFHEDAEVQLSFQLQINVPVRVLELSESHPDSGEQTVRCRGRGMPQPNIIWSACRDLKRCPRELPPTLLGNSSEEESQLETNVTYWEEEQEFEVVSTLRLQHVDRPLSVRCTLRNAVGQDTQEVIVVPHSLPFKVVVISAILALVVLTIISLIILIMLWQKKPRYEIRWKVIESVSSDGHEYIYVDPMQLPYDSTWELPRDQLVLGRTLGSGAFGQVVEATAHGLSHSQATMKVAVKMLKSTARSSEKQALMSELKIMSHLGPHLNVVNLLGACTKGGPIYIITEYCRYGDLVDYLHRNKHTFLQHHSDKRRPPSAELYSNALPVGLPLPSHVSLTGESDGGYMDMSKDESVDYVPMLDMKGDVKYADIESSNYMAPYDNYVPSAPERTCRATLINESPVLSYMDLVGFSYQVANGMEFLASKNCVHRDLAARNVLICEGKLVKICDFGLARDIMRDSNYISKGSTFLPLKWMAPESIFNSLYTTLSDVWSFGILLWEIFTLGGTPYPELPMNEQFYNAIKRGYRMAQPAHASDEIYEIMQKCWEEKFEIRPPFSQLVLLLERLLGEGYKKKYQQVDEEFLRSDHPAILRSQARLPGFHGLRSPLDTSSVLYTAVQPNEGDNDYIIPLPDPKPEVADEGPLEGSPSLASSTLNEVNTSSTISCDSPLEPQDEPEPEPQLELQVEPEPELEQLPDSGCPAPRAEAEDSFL

Row | IC50 [µM] | Compound
1 | > 100 | COc1cc(C)c(/C=C2/C(=O)Nc3ccc(Br)cc32)cc1C(C)C [Example 36, 5-Bromo-3-(5-isopropyl-4-methoxy-2-methyl-benzylidene)-1,3-dihydroindol-2-one]
2 | > 100 | COc1cc(C)c(/C=C2/C(=O)Nc3ccc(F)cc32)cc1C(C)C [Example 30, 5-Fluoro-3-(5-isopropyl-4-methoxy-2-methyl-benzylidene)-1,3-dihydroindol-2-one]
3 | > 100 | COc1ccc(/C=C2/C(=O)Nc3ccc(Cl)cc32)cc1-c1cccs1 [Example 59, 5-chloro-3-(4-Methoxy-3-thiophen-2-ylbenzylidene)-1,3-dihydroindol-2-one]
4 | 86.9 | COc1ccc(/C=C2/C(=O)Nc3cc(NC(C)=O)ccc32)cc1-c1ccsc1 [Example 18, N-[3-(4-Methoxy-3-thiophene-3-ylbenzylidene)-2-oxo-2,3-dihydro-1H-indol-6-yl]-acetamide]
5 | > 100 | COc1ccc(C=C2C(=O)Nc3cc(NC(C)=O)ccc32)cc1-c1cccc(NC(C)=O)c1 (mixture of isomers) [Example 63, N-[3-(3′-Acetylamino-6-methoxybiphenyl-3-ylmethylene)-2-oxo-2,3-dihydro-1H-indol-6-yl]-acetamide]
6 | > 100 | COc1ccc2c(c1)NC(=O)/C2=C/c1ccc(OC)c(-c2ccsc2)c1 [Example 64, 6-Methoxy-3-(4-methoxy-3-thiophen-3-ylbenzylidene)-1,3-dihydroindol-2-one]
7 | 43.1 | O=C1Nc2ccc(F)cc2/C1=C\c1ccc2c(c1)CCO2 [Example 42, 3-(2,3-Dihydrobenzofuran-5-ylmethylene)-5-fluoro-1,3-dihydroindol-2-one]
8 | > 100 | COc1ccc(C=C2C(=O)Nc3ccccc32)cc1-c1cccc(NC(C)=O)c1 [Example 29, N-[2′-Methoxy-5′-(2-oxo-1,2-dihydroindol-3-ylidenemethyl)-biphenyl-3-yl]-acetamide]
9 | > 100 | COc1ccc(/C=C2/C(=O)Nc3ccc(F)cc32)cc1C(C)C [Example 44, 5-Fluoro-3-(3-isopropyl-4-methoxybenzylidene)-1,3-dihydroindol-2-one]
10 | > 100 | CC(C)c1cc(/C=C2/C(=O)Nc3ccc(Cl)cc32)cc(C(C)C)c1OCCN1CCOCC1 [Example 24, 5-chloro-3-[3,5-diisopropyl-4-(2-morpholin-4-ylethoxy)-benzylidene]-1,3-dihydroindol-2-one]

More lines, now with the values behind:

Row | Compound | IC50 [µM]
11 | CC1(C)CCc2cc(/C=C3/C(=O)Nc4ccc(Cl)cc43)ccc2O1 [Example 15, 5-Chloro-3-(2,2-dimethyl-chroman-6-ylmethylene)-1,3-dihydroindol-2-one] | 26.5
12 | Cc1cccc2c1/C(=C/c1ccc3c(c1)CCC(C)(C)O3)C(=O)N2 [Example 41, 3-(2,2-Dimethylchroman-6-ylmethylene)-4-methyl-1,3-dihydroindol-2-one] | > 100
13 | CC(=O)Nc1ccc2c(c1)NC(=O)/C2=C/c1ccc(OCCN2CCOCC2)c(-c2ccsc2)c1 [Example 50, N-{3-[4-(2-Morpholin-4-ylethoxy)-3-thiophen-3-ylbenzylidene]-2-oxo-2,3-dihydro-1H-indol-6-yl}-acetamide] | > 100
14 | COc1cc(C=C2C(=O)Nc3ccccc32)c(-c2ccccc2OC)cc1OC [Example 49, 3-(4,5,2′-Trimethoxybiphenyl-2-ylmethylene)-1,3-dihydroindol-2-one] | > 100
15 | CC(=O)Nc1ccc2c(c1)NC(=O)/C2=C/c1ccc(OCCN2CCOCC2)c(C2CCCCC2)c1 [Example 16, N-{3-[3-Cyclohexyl-4-(2-morpholin-4-ylethoxy)-benzylidene]-2-oxo-2,3-dihydro-1H-indol-6-yl}-acetamide] | > 100
16 | COc1cc(C)c(C=C2C(=O)Nc3cc(NC(C)=O)ccc32)cc1C(C)C [Example 27, N-[3-(5-Isopropyl-4-methoxy-2-methyl-benzylidene)-2-oxo-2,3-dihydro-1H-indol-6-yl]-acetamide] | > 100
17 | COc1ccc(/C=C2/C(=O)Nc3cc(NC(C)=O)ccc32)cc1-c1cccs1 [Example 31, N-[3-(4-Methoxy-3-thiophen-2-ylbenzylidene)-2-oxo-2,3-dihydro-1H-indol-6-yl]-acetamide] | > 100
18 | CC(=O)Nc1ccc2c(c1)NC(=O)/C2=C/c1ccc(OCCN2CCOCC2)c(C(C)(C)C)c1 [Example 55, N-{3-[3-tert-Butyl-4-(2-morpholin-4-ylethoxy)-benzylidene]-2-oxo-2,3-dihydro-1H-indol-6-yl}-acetamide] | > 100
19 | COc1ccc(/C=C2/C(=O)Nc3ccccc32)cc1-c1ccsc1 [Example 35, 3-(4-Methoxy-3-thiophen-3-ylbenzylidene)-1,3-dihydroindol-2-one] | > 100
20 | COc1cccc(-c2cc(OC)c(OC)cc2/C=C2/C(=O)Nc3ccc(Cl)cc32)c1 [Example 61, 5-Chloro-3-(4,5-3′-Trimethoxybiphenyl-2-ylmethylene)-1,3-dihydroindol-2-one] | > 100
21 | COc1ccc(/C=C2/C(=O)Nc3ccc(Br)cc32)cc1-c1ccccc1 [Example 13, 5-Bromo-3-(6-methoxybiphenyl-3-ylmethylene)-1,3-dihydroindol-2-one] | > 100
22 | CCOc1cccc(-c2cc(C=C3C(=O)Nc4ccccc43)ccc2OC)c1 [Example 46, 3-(3′-Ethoxy-6-methoxybiphenyl-3-ylmethylene)-1,3-dihydroindol-2-one] | > 100
23 | COc1ccc(/C=C2/C(=O)Nc3ccc(Cl)cc32)cc1-c1cccnc1 [Example 60] | 24.5
24 | CC(=O)Nc1ccc2c(c1)NC(=O)/C2=C/c1ccc(OCCN2CCOCC2)c(-c2cccs2)c1 [Example 40, N-{3-[4-(2-Morpholin-4-ylethoxy)-3-thiophen-2-ylbenzylidene]-2-oxo-2,3-dihydro-1H-indol-6-yl}-acetamide] | > 100
25 | COc1cc(/C=C2/C(=O)Nc3ccccc32)c(-c2cccs2)cc1OC [Example 39, 3-(4,5-Dimethoxy-2-thiophen-2-ylbenzylidene)-1,3-dihydroindol-2-one] | > 100
26 | COc1ccc(/C=C2/C(=O)Nc3ccc(F)cc32)cc1C1CCCCC1 [Example 43, 3-(3-Cyclohexyl-4-methoxybenzylidene)-5-fluoro-1,3-dihydroindol-2-one] | 11
27 | CC(C)c1cc(/C=C2/C(=O)Nc3ccc(Br)cc32)cc(C(C)C)c1OCCN1CCOCC1 [Example 57, 5-Bromo-3-[3,5-diisopropyl-4-(2-morpholin-4-ylethoxy)benzylidene]-1,3-dihydroindol-2-one] | > 100
28 | COc1ccc(/C=C2/C(=O)Nc3ccc(F)cc32)cc1-c1ccccc1 [Example 37, 5-Fluoro-3-(6-methoxybiphenyl-3-ylmethylene)-1,3-dihydroindol-2-one] | > 100
29 | COc1cc(/C=C2/C(=O)Nc3ccccc32)c(-c2ccc3ccccc3c2)cc1OC [Example 62, 3-(4,5-Dimethoxy-2-naphthalen-2-ylbenzylidene)-1,3-dihydroindol-2-one] | > 100
30 | CC(=O)Nc1ccc2c(c1)NC(=O)/C2=C\c1ccc2c(c1)CCC(C)(C)O2 [Example 33, N-[3-(2,2-Dimethylchroman-6-ylmethylene)-2-oxo-2,3-dihydro-1H-indol-6-yl]-acetamide] | > 100
31 | CC1(C)CCc2cc(C=C3C(=O)Nc4ccc(Br)cc43)ccc2O1 (racemic) [Example 34, 5-Bromo-3-(2,2-dimethylchroman-6-ylmethylene)-1,3-dihydroindol-2-one] | 56.7
